Here are results for 16 compounds from patent US12156880B2, “Heterocyclic RIP1 kinase inhibitors” (Rigel Pharmaceuticals, Inc., priority 2021, dated 2024).

One assay concerns the target T1, RIPK1 (Homo sapiens, UniProt Q13546).
T1 sequence (Q13546 1-671): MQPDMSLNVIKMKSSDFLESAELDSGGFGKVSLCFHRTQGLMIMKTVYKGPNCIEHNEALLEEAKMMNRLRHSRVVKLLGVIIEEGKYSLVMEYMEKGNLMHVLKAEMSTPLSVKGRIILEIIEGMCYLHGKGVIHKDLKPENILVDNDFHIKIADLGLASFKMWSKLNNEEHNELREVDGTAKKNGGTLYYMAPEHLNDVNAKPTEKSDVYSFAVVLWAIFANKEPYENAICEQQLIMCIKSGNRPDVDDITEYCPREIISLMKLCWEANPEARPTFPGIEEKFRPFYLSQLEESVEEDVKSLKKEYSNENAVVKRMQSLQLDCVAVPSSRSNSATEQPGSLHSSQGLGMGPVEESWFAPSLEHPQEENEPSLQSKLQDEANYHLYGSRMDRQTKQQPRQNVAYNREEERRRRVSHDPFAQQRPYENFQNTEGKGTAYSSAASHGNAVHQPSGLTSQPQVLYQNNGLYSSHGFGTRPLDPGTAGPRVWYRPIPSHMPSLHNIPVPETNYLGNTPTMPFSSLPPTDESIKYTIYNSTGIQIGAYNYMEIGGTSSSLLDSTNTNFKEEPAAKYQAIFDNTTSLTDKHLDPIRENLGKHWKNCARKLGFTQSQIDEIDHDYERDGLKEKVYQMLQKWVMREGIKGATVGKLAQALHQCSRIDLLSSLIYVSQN
Kind of assay: RIPK1 ADP-Glo biochemical kinase assay. The following applies: read-out: RIPK1 ADP-Glo Kinase (IC50). A digest of the protocol: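 RIPK1 at 31 ng/well in Tris pH 7.4 buffer with MgCl2, BSA, DTT and MnCl2, reacted with compounds (duplicate) for 30 min at 30 °C. ADP formed detected by ADP-Glo: 40 min stop/depletion, then 30 min detection reagent at room temperature; luminescence read.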
(ADP-Glo first removes unused ATP, then detects ADP through luciferase.)

For the next assay, the system named is L929 cells. The assay is described as follows: L929 cell necroptosis assay (TNFa + zVAD, CellTiter-Glo recovery). In kind it is cell-based, murine. Details: L929-CTG-recovery, L929, TNFa + zVAD (IC50): unit not given here. The following applies: TNFa 2 ng/mL + zVAD-fmk; for IC50: Mus musculus, L929, 18 h, read-out: L929-CTG-recovery, L929, TNFa + zVAD (IC50). In short, it runs like this:
(§1)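 Human U937 (50K/well, 60 uM zVAD-fmk medium, plated same day) or murine L929 (10K/well, plated 18 h, then 40 uM zVAD-fmk medium) were grown in RPMI with 10% FBS. Both were pretreated with compound for 1 h at 37 °C before TNFa at 2 ng/mL final. Viability was read by CellTiter-Glo luminescence after 18 h.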
In general terms: ATP-based viability assays read luminescence as a measure of living cells.

Another assay relates to U937 cells. Kind of assay: U937 cell necroptosis assay (TNFa + zVAD, CellTiter-Glo recovery). Type of assay: cell-based. The following applies: Homo sapiens, U-937, 18 h, TNFa 2 ng/mL + zVAD-fmk, read-out: U937 Zvad TNF CTG Recovery, U937, TNFa + zVAD (IC50). A digest of the protocol: as §1

The structures appear in SMILES notation.

Usually IC50 stands for the concentration that gives 50% inhibition.

For `Cc1cccc(Oc2ccnc(C(=O)N[C@H]3COc4ccc(C#CC5(O)COC5)cc4N(C)C3=O)c2)n1` [I-131, (S)—N-(7-((3-hydroxyoxetan-3-yl)ethynyl)-5-methyl-4-oxo-2,3,4,5-tetrahydrobenzo[b][1,4]oxazepin-3-yl)-4-((6-methylpyridin-2-yl)oxy)picolinamide], the IC50 turned out to be 0.0245 µM on RIPK1, 2.67 µM in the assay on L929 cells and 0.263 µM in the assay on U937 cells.

Take `CN1C(=O)[C@@H](NC(=O)n2cc(Cc3cccc(F)n3)cn2)CCc2ccc(Br)cc21` [I-35, (S)—N-(8-Bromo-1-methyl-2-oxo-2,3,4,5-tetrahydro-1H-benzo[b]azepin-3-yl)-4-((6-fluoropyridin-2-yl)methyl)-1H-pyrazole-1-carboxamide]: the IC50 on RIPK1 turned out to be 0.0194 µM; in the assay with L929 cells, 6.86 µM; with U937 cells it was 0.07 µM.

In the case of `CN1C(=O)[C@@H](NC(=O)c2cc(Cc3cccc(F)n3)ccn2)COc2ccc(C#CC3(O)COC3)cc21` [I-7, (S)-4-((6-fluoropyridin-2-yl)methyl)-N-(7-((3-hydroxyoxetan-3-yl)ethynyl)-5-methyl-4-oxo-2,3,4,5-tetrahydrobenzo[b][1,4]oxazepin-3-yl)picolinamide], the IC50 on RIPK1 was 0.0186 µM; in the assay with L929 cells it was 0.449 µM; in the assay on U937 cells, 0.0148 µM.

With `CN1C(=O)[C@@H](NC(=O)c2cc(Oc3cccnc3F)ccn2)COc2ccc(C#CC(C)(C)C)cc21` [I-95, (S)—N-(7-(3,3-dimethylbut-1-yn-1-yl)-5-methyl-4-oxo-2,3,4,5-tetrahydrobenzo[b][1,4]oxazepin-3-yl)-4-((2-fluoropyridin-3-yl)oxy)picolinamide], the IC50 was 0.0634 µM at RIPK1, 0.354 µM in the assay on L929 cells and 0.0032 µM in the assay with U937 cells.

Take `Cc1ncccc1Oc1ccnc(C(=O)N[C@H]2COc3ccc(C#CC4(O)COC4)cc3N(C)C2=O)c1` [I-75, (S)—N-(7-((3-hydroxyoxetan-3-yl)ethynyl)-5-methyl-4-oxo-2,3,4,5-tetrahydrobenzo[b][1,4]oxazepin-3-yl)-4-((2-methylpyridin-3-yl)oxy)picolinamide]: the IC50 at RIPK1 came to 0.0104 µM; with L929 cells, 1.87 µM; in the assay on U937 cells, 0.0343 µM.

In the case of `CN1C(=O)[C@@H](NC(=O)n2cc(Cc3cccnc3F)cn2)COc2ccc(C#CC3(O)COC3)cc21` [I-47, (S)-4-((2-Fluoropyridin-3-yl)methyl)-N-(7-((3-hydroxyoxetan-3-yl)ethynyl)-5-methyl-4-oxo-2,3,4,5-tetrahydrobenzo[b][1,4]oxazepin-3-yl)-1H-pyrazole-1-carboxamide], the IC50 on RIPK1 turned out to be 0.0175 µM; in the assay with L929 cells, 2.9 µM; with U937 cells, 0.0408 µM.

In the case of `CN1C(=O)[C@@H](NC(=O)c2cc(Cc3cccc(C#N)n3)ccn2)COc2ccc(C#CC(C)(C)O)cc21` [I-93, (S)-4-((6-cyanopyridin-2-yl)methyl)-N-(7-(3-hydroxy-3-methylbut-1-yn-1-yl)-5-methyl-4-oxo-2,3,4,5-tetrahydrobenzo[b][1,4]oxazepin-3-yl)picolinamide], the IC50 at RIPK1 stood at 0.0299 µM; in the assay on L929 cells it was 5.67 µM; in the assay with U937 cells it was 0.0522 µM.

Turning to `Cc1ccc(Cc2cnn(C(=O)N[C@H]3COc4ccc(Br)cc4N(C)C3=O)c2)cn1` [I-23, (S)—N-(7-Bromo-5-methyl-4-oxo-2,3,4,5-tetrahydrobenzo[b][1,4]oxazepin-3-yl)-4-((6-methylpyridin-3-yl)methyl)-1H-pyrazole-1-carboxamide], the values for the half-inhibitory concentration (IC50) at RIPK1 and in the assay on U937 cells were 0.0257 µM and 0.0818 µM, respectively. Besides, the “L929-CTG-recovery, L929, TNFa + zVAD (IC50)” value in the assay on L929 cells (18 hours) came to 5000.

For the compound `CN1C(=O)[C@@H](NC(=O)n2cc(Cc3cccc(F)n3)cn2)COc2ccc(C#CC(C)(C)CO)cc21` [I-37, (S)-4-((6-Fluoropyridin-2-yl)methyl)-N-(7-(4-hydroxy-3,3-dimethylbut-1-yn-1-yl)-5-methyl-4-oxo-2,3,4,5-tetrahydrobenzo[b][1,4]oxazepin-3-yl)-1H-pyrazole-1-carboxamide], the IC50 at RIPK1 was 0.0162 µM; in the assay on L929 cells, 0.697 µM; in the assay with U937 cells it was 0.004 µM.

`CN1C(=O)[C@@H](NC(=O)c2cc(Cc3cccnc3F)ccn2)COc2ccc(C#CC3COC3)cc21` [I-52, (S)-4-((2-fluoropyridin-3-yl)methyl)-N-(5-methyl-7-(oxetan-3-ylethynyl)-4-oxo-2,3,4,5-tetrahydrobenzo[b][1,4]oxazepin-3-yl)picolinamide]: the IC50 came to 0.0165 µM on RIPK1, 0.657 µM with L929 cells and 0.0022 µM in the assay with U937 cells.

As to `CN1C(=O)[C@@H](NC(=O)n2cc(Cc3cccc(F)n3)cn2)CCc2c(F)cc(C#CC(C)(C)CO)cc21` [I-122, (S)—N-(6-Fluoro-8-(4-hydroxy-3,3-dimethylbut-1-yn-1-yl)-1-methyl-2-oxo-2,3,4,5-tetrahydro-1H-benzo[b]azepin-3-yl)-4-((6-fluoropyridin-2-yl)methyl)-1H-pyrazole-1-carboxamide], the IC50 on RIPK1 was found to be 0.0325 µM; in the assay with L929 cells, 8.67 µM; with U937 cells, 0.0974 µM.

With `CN1C(=O)[C@@H](NC(=O)c2cc(Cc3cccnc3F)ccn2)COc2ccc(C#CC(C)(C)O)cc21` [I-27, (S)-4-((2-fluoropyridin-3-yl)methyl)-N-(7-(3-hydroxy-3-methylbut-1-yn-1-yl)-5-methyl-4-oxo-2,3,4,5-tetrahydrobenzo[b][1,4]oxazepin-3-yl)picolinamide], the IC50 at RIPK1 is 0.0193 µM; with L929 cells, 0.622 µM; in the assay on U937 cells, 0.0097 µM.

With `CN1C(=O)[C@@H](NC(=O)n2cc(Cc3cccnc3)cn2)COc2ccc(C#CC(C)(C)O)cc21` [I-14, (S)—N-(7-(3-Hydroxy-3-methylbut-1-yn-1-yl)-5-methyl-4-oxo-2,3,4,5-tetrahydrobenzo[b][1,4]oxazepin-3-yl)-4-(pyridin-3-ylmethyl)-1H-pyrazole-1-carboxamide], the IC50 on RIPK1 was 0.0176 µM; in the assay on L929 cells, 1.17 µM; with U937 cells, 0.0143 µM.

For the compound `CN1C(=O)[C@@H](NC(=O)c2cc(Cc3cocn3)ccn2)COc2ccc(C#CC(C)(C)O)cc21` [I-137, (S)—N-(7-(3-hydroxy-3-methylbut-1-yn-1-yl)-5-methyl-4-oxo-2,3,4,5-tetrahydrobenzo[b][1,4]oxazepin-3-yl)-4-(oxazol-4-ylmethyl)picolinamide], the IC50 on RIPK1 was 0.0119 µM; in the assay on L929 cells, 0.0874 µM; in the assay on U937 cells, 0.0255 µM.

Take `CN1C(=O)[C@@H](NC(=O)c2cc(Cc3cccnc3)ccn2)COc2ccc(C#CC(C)(C)O)cc21` [I-61, (S)—N-(7-(3-hydroxy-3-methylbut-1-yn-1-yl)-5-methyl-4-oxo-2,3,4,5-tetrahydrobenzo[b][1,4]oxazepin-3-yl)-4-(pyridin-3-ylmethyl)picolinamide]: the IC50 stood at 0.0243 µM at RIPK1, 2.42 µM in the assay with L929 cells and 0.0192 µM in the assay with U937 cells.

`CN1C(=O)[C@@H](NC(=O)c2cc(Oc3cnn(C)c3)ccn2)COc2ccc(C#CC3CCOCC3)cc21` [I-136, (S)-4-((1-methyl-1H-pyrazol-4-yl)oxy)-N-(5-methyl-4-oxo-7-((tetrahydro-2H-pyran-4-yl)ethynyl)-2,3,4,5-tetrahydrobenzo[b][1,4]oxazepin-3-yl)picolinamide]: the values for the IC50 at RIPK1, with L929 cells and in the assay with U937 cells were 0.0077 µM, 0.0054 µM and 0.0007 µM, respectively.
